Measured values: patent US20140011822A1, “METHODS AND MATERIALS FOR REDUCING VENOUS STENOSIS FORMATION OF AN ARTERIOVENOUS FISTULA OR GRAFT” (priority 2011, published 2014)

Legend:
VEGF-A = assay: RT-PCR for VEGF-A in kidneys, simvastatin; format: in vivo, mice
Protocol: (§1) Animals were housed at 22° C. temperature, 41% relative humidity, and 12-/12-hour light/dark cycles. Animals were allowed access to water and food ad libitum. […] Sixty-eight male C57BL/6 mice (Jackson Laboratories, Bar Harbor, Me.) weighing 25-30 grams were used for the present study (FIG. 18). Chronic kidney disease was created by surgical removal of the right kidney accompanied by ligation of the arterial blood supply to the upper pole of the left kidney as described elsewhere (Misra et al., J. Vasc. Interv. Radiol., 21:1255-1261 (2010); see, also, FIG. 18A). Three weeks after nephrectomy, the animals were started on simvastatin (40 mg/kg administered i.p. three times per week) or PBS (equal amount of volume used for simvastatin i.p. controls). Simvastatin was prepared as described elsewhere (Wilson et al., Arterioscler Thromb. Vasc. Biol., 21:122-128 (2001)). […] Serum BUN and creatinine were measured by removing blood from the tail vein at baseline (before nephrectomy), at AVF creation, and at the time of sacrifice. […]
(§2) Expression for the gene of interest was determined using RT-PCR analysis as described elsewhere (Misra et al., J. Vasc. Interv. Radiol., 21:1255-1261 (2010)). […]

[1] = test system: outflow vein of arteriovenous fistula; assay: Histomorphometry of outflow vein (neointima, media/adventitia, lumen area, cell density), simvastatin; format: in vivo, mice; details: for Average reduction of media/adventitia area / average increase of lumen vessel area / average reduction of media/adventitia cell density / average reduction of neointima area / average reduction of neointima cell density: vs control
Protocol: (§3) Animals were housed at 22° C. temperature, 41% relative humidity, and 12-/12-hour light/dark cycles. Animals were allowed access to water and food ad libitum. […] Sixty-eight male C57BL/6 mice (Jackson Laboratories, Bar Harbor, Me.) weighing 25-30 grams were used for the present study (FIG. 18). Chronic kidney disease was created by surgical removal of the right kidney accompanied by ligation of the arterial blood supply to the upper pole of the left kidney as described elsewhere (Misra et al., J. Vasc. Interv. Radiol., 21:1255-1261 (2010); see, also, FIG. 18A). Three weeks after nephrectomy, the animals were started on simvastatin (40 mg/kg administered i.p. three times per week) or PBS (equal amount of volume used for simvastatin i.p. controls). Simvastatin was prepared as described elsewhere (Wilson et al., Arterioscler Thromb. Vasc. Biol., 21:122-128 (2001)). A week later, an AVF was created by connecting the right carotid artery to the ipsilateral jugular vein (FIG. 18B; see, also, Misra et al., J. Vasc. Interv. Radiol., 21:1255-1261 (2010) and Yang et al., J. Vasc. Interv. Radiol., 20:946-950 (2009)). Animals were sacrificed at day 7, day 14, and day 28 following AVF placement for real time polymerase chain reaction (RT-PCR) and histomorphometric analyses (FIG. 18C). Serum BUN and creatinine were measured by removing blood from the tail vein at baseline (before nephrectomy), at AVF creation, and at the time of sacrifice. […] These animals were started on simvastatin (40 mg/kg i.p.) or PBS (equal amount of volume i.p.) every other day one week before AVF placement and then sacrificed four weeks after fistula placement for histomorphometric analysis.
At euthanasia, all mice were anesthetized, and the arterio-venous fistula was carefully dissected from of the surrounding tissue. Animals were euthanized by use of CO2 asphyxiation, and the outflow veins harvested for RT-PCR or histomorphometric analyses as described elsewhere (Misra et al., Kidney Int., 68:2890-2900 (2005); Misra et al., J. Vasc. Interv. Radiol., 21:1255-1261 (2010); and Misra et al., Am. J. Physiol. Heart Circ. Physiol., 294:H2219-2230 (2008)).
(§4) Morphometric analysis was performed as described elsewhere (Misra et al., Kidney Int., 68:2890-2900 (2005); and Misra et al., Am. J. Physiol. Heart Circ. Physiol., 294:H2219-2230 (2008)). Briefly, the outflow vein was sectioned into multiple contiguous 4-μm paraffin embedded sections. Typically, 2 to 3 sections per animal for each group (simvastatin and controls) and time point (day 14 and day 28) were photographed and then quantified using KS 400 (Carl Zeiss, Inc., Thornwood, N.Y.) semiquantitative program.

[2] = test system: apoptosis at the outflow vein; assay: TUNEL staining of outflow vein, simvastatin; format: in vivo, mice; details: for average increase of TUNEL staining: vs control
Protocol: TUNEL staining was performed on paraffin-embedded sections from the outflow vein after treatment with either simvastatin or controls as specified by the manufacturer (DeadEnd Colorimetric tunnel assay system, G7360, Promega, Madison, Wis.).
as §4

CTGF = assay: RT-PCR for CTGF at outflow vein, simvastatin; format: in vivo, mice; details: day 14
Protocol: as §1, §2

HIF-1α = assay: RT-PCR for HIF-1α at outflow vein, simvastatin; format: in vivo, mice; details: for average reduction of HIF-1α gene expression: vs control
Protocol: as §3
The tissue was stored in RNA stabilizing reagent (Qiagen, Gaithersburg, Md.) as per the manufacturer's guidelines. To isolate the RNA, the specimens were homogenized, and total RNA was isolated using RNeasy mini kit (Qiagen) (Misra et al., J. Vasc. Interv. Radiol., 21:1255-1261 (2010); and Yang et al., J. Vasc. Interv. Radiol., 20:946-950 (2009)).
Expression for the gene of interest was determined using RT-PCR analysis as described elsewhere (Misra et al., J. Vasc. Interv. Radiol., 21:1255-1261 (2010)). Commercial PCR primers for the gene of interest were purchased from SA Biosciences (Frederick, Md.).

[3] = test system: hypoxic changes in the outflow vein; assay: Hypoxyprobe staining of outflow vein, simvastatin; format: in vivo, mice; details: for average reduction of hypoxyprobe staining: vs control
Protocol: Hypoxic changes were assessed in the outflow vein of simvastatin treated vessels or control groups using Hypoxyprobe™-1 (EMD Millipore, Billerica, Mass.), a substituted derivative of pimonidazole hydrochloride. Hypoxyprobe™-1 upon activation forms stable covalent adducts with thiol groups of polypeptides and amino acids of hypoxic tissue. Mice were injected with 60 mg/kg Hypoxyprobe™-1 i.p. Thirty minutes following injection, mice were sacrificed, and outflow veins were dissected and fixed as specified for histological analysis. Four-micrometer thick paraffin embedded sections were stained with the anti-hypoxyprobe-1 Ab as per the manufacturer's directions.

α-SMA = assay: Confocal microscopy for α-SMA plus phalloidin in NIH 3T3 cells, simvastatin; format: cell-based
Protocol: One hundred thousand NIH 3T3 cells were treated with simvastatin (1 μM, 5 μM, or 10 μM) or controls and made hypoxic for 24 hours as described elsewhere (Misra et al., J. Vasc. Interv. Radiol., 21:896-902 (2010)).

With CCC(C)(C)C(=O)O[C@H]1C[C@@H](C)C=C2C=C[C@H](C)[C@H](CC[C@@H]3C[C@@H](O)CC(=O)O3)[C@H]21 [simvastatin] the “average gene expression of VEGF-A” value (VEGF-A; day 28) was 1±0.02, the “Average reduction of VEGF-A gene expression” value (VEGF-A; day 28, vs control) was 24% and the “average area of the media/adventitia” value ([1]; day 14) was 147603±4443 μm^2. For the same compound, the “average area of the neointima” value ([1]; day 14) was 61864±12401 μm^2, the “average cell density of the media/adventitia” value ([1]; day 14) was 3.27±0.33 and the “average cell density of the neointima” value ([1]; day 14) was 4.6±0.2. For the same compound, the “average lumen vessel area” value ([1]; day 14) was 95051±21583, the “Average reduction of media/adventitia area” value ([1]; day 14) was 43% and the “average increase of lumen vessel area” value ([1]; day 14) was 150%. The “average reduction of media/adventitia cell density” value ([1]; day 14) was 37%, the “average reduction of neointima area” value ([1]; day 14) was 56% and the “average reduction of neointima cell density” value ([1]; day 14) was 65%. For the same compound, the “average area of the neointima” value ([1]; day 28) was 85574±1652, the “average cell density of the media/adventitia” value ([1]; day 28) was 2.85±0.10 and the “average cell density of the neointima” value ([1]; day 28) was 4.2±0.2. The “average lumen vessel area” value ([1]; day 28) was 162607±34685, the “average increase of lumen vessel area” value ([1]; day 28) was 343% and the “average reduction of media/adventitia cell density” value ([1]; day 28) was 35%. For the same compound, the “average reduction of neointima area” value ([1]; day 28) was 45%, the “average reduction of neointima cell density” value ([1]; day 28) was 70% and the “Average reduction of media/adventitia area” value ([1]; day 28, not statistically significant (P=0.03)) was 32%. For the same compound, the “average cell density of the media/adventitia” value ([1]; day 28 normal) was 1.67±0.1, the “average cell density of the neointima” value ([1]; day 28 normal) was 2.63±0.11 and the “average reduction of media/adventitia cell density” value ([1]; day 28 normal) was 71%. The “average reduction of neointima cell density” value ([1]; day 28 normal) was 61%, the “Average reduction of media/adventitia area” value ([1]; day 28 normal, not statistically significant (P=0.03)) was 29% and the “average density of cells staining positive for TUNEL” value ([2]; day 14) was 25.26±2.78. For the same compound, the “average increase of TUNEL staining” value ([2]; day 14) was 366%, the “average density of cells staining positive for TUNEL” value ([2]; day 28) was 30.17±1.8 and the “average increase of TUNEL staining” value ([2]; day 28) was 561%. For the same compound, the “increase of TUNEL staining” value ([2]; day 28 normal, vs control (P=0.0136)) was 326%, the “mean gene expression of CTGF” value (CTGF) was 0.29±0.05 and the “average reduction of CTGF gene expression” value (CTGF; vs control) was 45%. For the same compound, the “mean gene expression of HIF-1α” value (HIF-1α; day 7) was 0.45±0.12, the “average reduction of HIF-1α gene expression” value (HIF-1α; day 7) was 54% and the “mean gene expression of HIF-1α” value (HIF-1α; day 14) was 0.34±0.04. The “average reduction of HIF-1α gene expression” value (HIF-1α; day 14) was 54%, the “average density of hypoxyprobe staining” value ([3]; day 14) was 18.33±2.06 and the “average reduction of hypoxyprobe staining” value ([3]; day 14) was 53%. The “average density of hypoxyprobe staining” value ([3]; day 28) was 13.01±4.62, the “average reduction of hypoxyprobe staining” value ([3]; day 28) was 70% and the “reduction of hypoxyprobe staining” value ([3]; day 28 normal, vs control (P=0.0103)) was 72%. For the same compound, the “average reduction in α-SMA plus phalloidin staining” value (α-SMA; 5 μM, 24 hours of hypoxia) was 52%, the “average reduction in α-SMA plus phalloidin staining” value (α-SMA; 5 μM, 24 hours of normoxia) was 62% and the “average reduction in α-SMA plus phalloidin staining” value (α-SMA; 10 μM, 24 hours of hypoxia) was 82%. For the same compound, the “average reduction in α-SMA plus phalloidin staining” value (α-SMA; 10 μM, 24 hours of normoxia) was 94%.
